Results as given in the supplement of paper PMC4862054.
“And” between values parts separate entries of the source, which are not always exact repeats. Equal entries are not always repeated.

How the values were obtained:
BT-474 [1] = conditions: 72 h
In short: (§1)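 The plates used were 384-well plates holding compound at 5 concentrations in 10-fold steps across a compound-specific 10,000-fold range, into which breast cancer cell lines were seeded in 20 µl suspension. Following 72 h incubation, CellTox Green fluorescence was read at 485/520 nm, and CellTiter-Glo luminescence was read after 10 min at room temperature. Normalisation on each plate used 0.1 % DMSO and a positive kill control. Dose-response curves gave the EC50, which was censored at the top concentration.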

HDQ-P1 [2] = conditions: 72 h
In short: as §1

MDA-MB-468 [3] = conditions: 72 h
In short: as §1

BT-474 [4] = assay: normalised viability (% of control), CellTiter-Blue; higher = more viable cells (about 100 = DMSO control); conditions: incubation time: 72 h
Procedure: (§2)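 DSRT, CellTiter-Blue viability, 72 h incubation. Signal is normalised to DMSO and benzethonium chloride controls. Value is the normalised response at dose 3.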

BT-549 = assay: as above; conditions: incubation time: 72 h
Procedure: as §2

CAL-120 = assay: as above; conditions: incubation time: 72 h
Procedure: as §2

CAL-148 = assay: as above; conditions: incubation time: 72 h
Procedure: as §2

CAL-51 = assay: as above; conditions: incubation time: 72 h
Procedure: as §2

CAL-85-1 = assay: as above; conditions: incubation time: 72 h
Procedure: as §2

DU-4475 [5] = assay: as above; conditions: incubation time: 72 h
Procedure: as §2

HCC1143 = assay: as above; conditions: incubation time: 72 h
Procedure: as §2

HCC1599 = assay: as above; conditions: incubation time: 72 h
Procedure: as §2

HCC1937 [6] = assay: as above; conditions: incubation time: 72 h
Procedure: as §2

HDQ-P1 [7] = assay: as above; conditions: incubation time: 72 h
Procedure: as §2

Hs578T = assay: as above; conditions: incubation time: 72 h
Procedure: as §2

MDA-MB-231 [8] = assay: as above; conditions: incubation time: 72 h
Procedure: as §2

MDA-MB-436 [9] = assay: as above; conditions: incubation time: 72 h
Procedure: as §2

MDA-MB-453 [10] = assay: as above; conditions: incubation time: 72 h
Procedure: as §2

MDA-MB-468 [11] = assay: as above; conditions: incubation time: 72 h
Procedure: as §2

MFM-223 [12] = assay: as above; conditions: incubation time: 72 h
Procedure: as §2

SK-BR-3 = assay: as above; conditions: incubation time: 72 h
Procedure: as §2

BT-474 [13] = assay: drug sensitivity score (DSS), CellTox Green (DSS (AUC-based score)); higher = stronger drug effect (viability inhibition or cytotoxicity); extreme values may be limits of the assay; conditions: incubation time: 72 h
In short: (§3)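 Breast cancer cell lines (20 µl suspension) were seeded into 384-well plates holding compound at 5 concentrations in 10-fold steps over a compound-specific 10,000-fold range, then incubated 72 h. CellTox Green fluorescence (485/520 nm) was read first, then CellTiter-Glo luminescence after 10 min at room temperature. Each plate was normalised to 0.1 % DMSO and a positive kill control. The drug sensitivity score was calculated from the area under the fitted dose-response curve.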

DU-4475 [14] = assay: as above; conditions: incubation time: 72 h
In short: as §3

HCC1937 [15] = assay: as above; conditions: incubation time: 72 h
In short: as §3

HDQ-P1 [16] = assay: as above; conditions: incubation time: 72 h
In short: as §3

MDA-MB-231 [17] = assay: as above; conditions: incubation time: 72 h
In short: as §3

MDA-MB-436 [18] = assay: as above; conditions: incubation time: 72 h
In short: as §3

MDA-MB-453 [19] = assay: as above; conditions: incubation time: 72 h
In short: as §3

MFM-223 [20] = assay: as above; conditions: incubation time: 72 h
In short: as §3

| SMILES | EC50, CellTiter-Glo (BT-474 [1]) | EC50, CellTiter-Glo (HDQ-P1 [2]) | EC50, CellTiter-Glo (MDA-MB-468 [3]) | normalised viability (BT-474 [4]; 100 nM) | normalised viability (BT-549; 100 nM) | normalised viability (CAL-120; 100 nM) | normalised viability (CAL-148; 10 nM) | normalised viability (CAL-51; 10 nM) | normalised viability (CAL-85-1; 10 nM) | normalised viability (DU-4475 [5]; 10 nM) | normalised viability (HCC1143; 100 nM) | normalised viability (HCC1599; 100 nM) | drug sensitivity score (BT-474 [13]) | drug sensitivity score (DU-4475 [14]) | drug sensitivity score (HCC1937 [15]) | drug sensitivity score (HDQ-P1 [16]) | drug sensitivity score (MDA-MB-231 [17]) | drug sensitivity score (MDA-MB-436 [18]) | drug sensitivity score (MDA-MB-453 [19]) | drug sensitivity score (MFM-223 [20]) | also measured |
| --- | --- | --- | --- | --- | --- | --- | --- | --- | --- | --- | --- | --- | --- | --- | --- | --- | --- | --- | --- | --- | --- |
| Nc1ncn([C@@H]2O[C@H](CO)[C@@H](O)[C@H]2O)c(=O)n1 [Azacitidine] | 2290 nM | 2470 nM | 574 nM | 107% | 106% | 90.9% | 82.7% | 108% | 95.2% | 118% | 91.5% | 97% | 1.95 | 0 | 0 | 0 | 0 | 1.61 | 0 | 0 | normalised viability (HCC1937 [6]; 100 nM): 98.3%; normalised viability (HDQ-P1 [7]; 10 nM): 108%; normalised viability (Hs578T; 100 nM): 91.7%; normalised viability (MDA-MB-231 [8]; 100 nM): 84.5%; normalised viability (MDA-MB-436 [9]; 100 nM): 89.3%; normalised viability (MDA-MB-453 [10]; 10 nM): 101%; normalised viability (MDA-MB-468 [11]; 100 nM): 103%; normalised viability (MFM-223 [12]; 100 nM): 94.7%; normalised viability (SK-BR-3; 100 nM): 89.3% |
| Cc1sc2c(c1C)C(c1ccc(Cl)cc1)=N[C@@H](CC(=O)OC(C)(C)C)c1nnc(C)n1-2 [(+)JQ1] | 113 nM | 129 nM | 487 nM | 110% | 80.9% | 79.1% | 94.7% | 98.5% | 101% | 88.3% | 92.2% | 100% | 0 | 1.14 | 13.4 | 0 | 0 | 0 | 0 | 0 | normalised viability (HCC1937 [6]; 100 nM): 98.4%; normalised viability (HDQ-P1 [7]; 10 nM): 98.4%; normalised viability (Hs578T; 100 nM): 72.6%; normalised viability (MDA-MB-231 [8]; 100 nM): 95.9%; normalised viability (MDA-MB-436 [9]; 100 nM): 136%; normalised viability (MDA-MB-453 [10]; 10 nM): 108%; normalised viability (MDA-MB-468 [11]; 100 nM): 108%; normalised viability (MFM-223 [12]; 100 nM): 85.1%; normalised viability (SK-BR-3; 100 nM): 98.3% |
| Cn1cnc2c(F)c(Nc3ccc(Br)cc3Cl)c(C(=O)NOCCO)cc21 [Selumetinib] | 361 nM | 44.8 nM | 5030 nM | 94.5% | 110% | 82.8% | 91.6% | 113% | 98.6% | 93.8% | 63.9% | 96.6% | 0 | 8.17 | 0 | 2.06 | 13.2 | 0 | 0 | 0 | normalised viability (HCC1937 [6]; 100 nM): 97.9%; normalised viability (HDQ-P1 [7]; 10 nM): 116%; normalised viability (Hs578T; 100 nM): 68.4%; normalised viability (MDA-MB-231 [8]; 100 nM): 61.5%; normalised viability (MDA-MB-436 [9]; 100 nM): 123%; normalised viability (MDA-MB-453 [10]; 10 nM): 108%; normalised viability (MDA-MB-468 [11]; 100 nM): 92.5%; normalised viability (MFM-223 [12]; 100 nM): 87.6%; normalised viability (SK-BR-3; 100 nM): 65.7% |
| CC(=O)O[C@@]12CO[C@@H]1C[C@H](O)[C@@]1(C)C(=O)[C@H](O)C3=C(C)[C@@H](OC(=O)[C@H](O)[C@@H](NC(=O)OC(C)(C)C)c4ccccc4)C[C@@](O)([C@@H](OC(=O)c4ccccc4)[C@H]21)C3(C)C [Docetaxel] | 7.47 nM | 2.08 nM | 0.68 nM | – | – | – | – | – | – | – | – | – | 11.8 | 0 | 1.03 | 6.92 | 31 | 0 | 0 | 10.2 | normalised viability (BT-474 [4]; 10 nM): 49.9% and 46.2%; normalised viability (BT-549; 10 nM): 28% and 25.4%; normalised viability (CAL-120; 10 nM): 32.1% and 30.1%; normalised viability (CAL-148; 1 nM): 99.2% and 81.9%; normalised viability (CAL-51; 1 nM): 101% and 90.4%; normalised viability (CAL-85-1; 1 nM): 88.3% and 86.5%; normalised viability (DU-4475 [5]; 1 nM): 86% and 95.2%; normalised viability (HCC1143; 10 nM): 51.7% and 35.2%; normalised viability (HCC1599; 10 nM): 110% and 108%; normalised viability (HCC1937 [6]; 10 nM): 32.2% and 27.2%; normalised viability (HDQ-P1 [7]; 1 nM): 78.7% and 71.2%; normalised viability (Hs578T; 10 nM): 13.1% and 18.8%; normalised viability (MDA-MB-231 [8]; 10 nM): 34.8% and 32.6%; normalised viability (MDA-MB-436 [9]; 10 nM): 51.1% and 52%; normalised viability (MDA-MB-453 [10]; 1 nM): 85.9% and 66.5%; normalised viability (MDA-MB-468 [11]; 10 nM): 50% and 41.6%; normalised viability (MFM-223 [12]; 10 nM): 59.6% and 53.8%; normalised viability (SK-BR-3; 10 nM): 6.91% and 8.46% |
